Experimental data from ChEMBL document CHEMBL6177968, “Development of sulfamoylbenzamide-based capsid assembly modulators for hepatitis B virus capsid assembly” (Eur J Med Chem, 2025).

Assays:
[1] = Metabolic stability in rat liver microsomes assessed as compound remaining measured after 30 mins; assay type: ADME, Microsome; conditions: read-out: Stability
[2] = Metabolic stability in mouse liver microsomes assessed as compound remaining measured after 30 mins; assay type: ADME, Microsome; conditions: read-out: Stability
Hepatitis B virus = experiment: Antiviral activity against HBV in human HepG2.2.15 cells assessed as reduction in viral replication incubated for 5 days by real-time PCR analysis; assay type: functional, organism-based; conditions: HepG2.2.15, 120 h
[3] = Metabolic stability in human liver microsomes assessed as compound remaining measured after 30 mins; assay type: ADME, Microsome; conditions: read-out: Stability
[4] = Cytotoxicity in human HepG2.2.15 cells assessed as reduction in cell viability; assay type: toxicity, cell-based, HepG2 2.2.15
[5] = Selectivity index, ratio of CC50 for cytotoxicity in human HepG2.2.15 cells assessed as reduction in cell viability to EC50 for antiviral activity against HBV in human HepG2.2.15 cells assessed as reduction in viral replication; assay type: toxicity, cell-based; conditions: read-out: Ratio CC50/EC50

Structure (SMILES)	remaining at 0.5 h [1] [%]	remaining at 0.5 h [2] [%]	EC50 (Hepatitis B virus) [nM]	remaining at 0.5 h [3] [%]	CC50 [4] [nM]	selectivity ratio [5]
Nc1cc(F)c(S(=O)(=O)N2CC3COCC3C2)cc1C(=O)Nc1ccc(F)c(C(F)F)c1 (stereo not drawn)	0.79	0.09	100	0.76	> 900000	> 9330
Nc1cc(F)c(S(=O)(=O)NCC2COC2)cc1C(=O)Nc1ccc(F)c(C(F)F)c1	26	31.9	130	56.2	150000	1160
Nc1cc(F)c(S(=O)(=O)NC2CCOC2)cc1C(=O)Nc1ccc(F)c(F)c1 (stereo not drawn)	–	–	490	–	26300	53.6
CN(C1COC1)S(=O)(=O)c1cc(C(=O)Nc2ccc(F)c(C(F)F)c2)c(N)cc1F	–	–	70	–	7680	115
